# Measurements reported in patent US20240150423A1, “GLP-1 ANALOGUE-MODIFIED DIMERS WITH DIFFERENT CONFIGURATIONS, PREPARATION METHOD THEREOF, AND APPLICATION THEREOF IN TREATMENT OF TYPE II DIABETES” (Nanjing Finepeptide Biopharmaceutical Co.,Ltd, priority 2019, published 2024).
# System: Normal Kunming (KM) mice
# Assay: multiple OGTT (mOGTT): hypoglycemic duration after a single administration
# Type: in vivo
# Details: monomeric peptides, single injection at the same dose (1.126 nmol), subcutaneous
# Summary of the method: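 Single administration in normal Kunming mice, followed by oral glucose loading with tail-vein glucose sampled at 0–120 min (0, 10, 20, 40, 60, 120 min). Effective duration ended once mean glucose exceeded the NaCl control group on two occasions.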
row,Substance,Hypoglycemic [days]
1,His-aAib-Glu-Gly-Thr-Phe-Thr-Ser-Asp-Val-Ser-Cys-Tyr-Leu-Glu-Gly-Gln-Ala-Ala-Lys[N-ϵ-(N-α-Palmitoyl)]-Glu-Phe-Ile-Ala-Trp-Leu-Val-Arg-Gly-Arg-Gly-NH2 (HXEGTFTSDVSCYLEGQAAXEFIAWLVRGRG; not fully specified; Aib; palmitoyl on Lys side chain; C-terminal amide; Sequence is synthesized; (2)..(2) Xaa is aAib; (20)..(20) Xaa is 26Lys[N-e-(N-a-palmitoyl-L-g-glutamyl)]; (31)..(31) N-terminal) [G4 series 37],7
2,His-aAib-Glu-Gly-Thr-Phe-Thr-Cys-Asp-Val-Ser-Ser-Tyr-Leu-Glu-Gly-Gln-Ala-Ala-Lys[N-ϵ-(N-α-Palmitoyl-γ-glutamyl)]-Glu-Phe-Ile-Ala-Trp-Leu-Val-Arg-Gly-Arg-Gly-OH (HXEGTFTCDVSSYLEGQAAXEFIAWLVRGRG; Aib; palmitoyl-gamma-Glu on Lys; C-terminal acid; Sequence is synthesized; (2)..(2) Xaa is aAib; (20)..(20) Xaa is 26Lys[N-e-(N-a-palmitoyl-L-g-glutamyl)]; (31)..(31) C-terminal) [G8 series 60],2
3,His-aAib-Glu-Gly-Thr-Phe-Thr-Cys-Asp-Val-Ser-Ser-Tyr-Leu-Glu-Gly-Gln-Ala-Ala-Lys[N-ϵ-(N-α-oleoyl-L-γ-glutamyl)]-Glu-Phe-Ile-Ala-Trp-Leu-Val-Arg-Gly-Arg-Gly-OH (HXEGTFTCDVSSYLEGQAAXEFIAWLVRGRG; Aib; oleoyl-gamma-Glu on Lys; C-terminal acid; Sequence is synthesized; (2)..(2) Xaa is aAib; (20)..(20) Xaa is 26Lys[N-e-(N-a-oleoyl-L-g-glutamyl)]; (31)..(31) C-terminal) [G8 series 63],2
4,His-βAib-Glu-Gly-Thr-Phe-Thr-Cys-Asp-Val-Ser-Ser-Tyr-Leu-Glu-Gly-Gln-Ala-Ala-Lys[N-ϵ-(N-α-oleoyl-L-γ-glutamyl)]-Glu-Phe-Ile-Ala-Trp-Leu-Val-Arg-Gly-Arg-Gly-NH2 (HXEGTFTCDVSSYLEGQAAXEFIAWLVRGRG; beta-Aib; oleoyl-gamma-Glu on Lys; C-terminal amide; Sequence is synthesized; (2)..(2) Xaa is bAib; (20)..(20) Xaa is 26Lys[N-e-(N-a-oleoyl-L-g-glutamyl)]; (31)..(31) N-terminal) [G8 series 66],3

# Same assay, conditions: single injection at the same dose (1.126 nmol), subcutaneous
row,Substance,Hypoglycemic duration [days]
1,2G4 series 39: disulfide-linked homodimer of monomer SEQ ID NO: 39 (HXEGTFTSDVSCYLEGQAAXEFIAWLVRGRG; disulfide-linked homodimer; Sequence is synthesized; (2)..(2) Xaa is bAla; (20)..(20) Xaa is 26Lys[N-e-(N-a-oleoyl-L-g-glutamyl)]; (31)..(31) N-terminal),16
2,2G4 series 33: disulfide-linked homodimer of monomer SEQ ID NO: 33 (HAEGTFTSDVSCYLEGQAAXEFIAWLVRGRG; not fully specified; disulfide-linked homodimer; Sequence is synthesized; (20)..(20) Xaa is 26Lys[N-e-(N-a-oleoyl-L-g-glutamyl)]; (31)..(31) N-terminal),16
3,2G2 series 8: disulfide-linked homodimer of monomer SEQ ID NO: 8 (HAEGTFTSDVCSYLEGQAAXEFIAWLVRGRG; not fully specified; disulfide-linked homodimer; Sequence is synthesized; (20)..(20) Xaa is Xaa is 26Lys[N-e-(N-a-Palmitoyl-g-glutamyl)]; (31)..(31) N-terminal),7
